Key:
[1] = target: T1, human GluN1/GluN2B NMDARs (Homo sapiens, UniProt Q05586+Q13224); test: Automated patch clamp, NMDARs in HEK293 cells; type: cell-based; conditions: +40 mV; glycine 100 μM plus NMDA 40 μM; stable HEK293
T1 construct: host or cells: HEK293
Method: (§1) Recombinant human GluN1 (UniProt ID Q05586) with GluN2A (Uniprot Q12879) or GluN2B (Uniprot Q13224) NMDARs were stably expressed under tetracycline control in HEK293 cell lines (Charles River). Voltage-clamp recordings were performed using the Sophion Qube platform which performs 384 parallel and independent patch-clamp recordings with digitally controlled microfluidics (Tecan D300) on a disposable single-hole or multi-hole QChip. The following extracellular solution was used: 145 mM NaCl, 4 mM KCl, 10 mM HEPES, 10 mM glucose, 2 mM CaCl2, 1 mM MgCl2; pH 7.4. The following intracellular solution was used: 70 mM CsF, 70 mM CsCl, 10 mM HEPES, 1 mM EGTA; 316 mOsm, pH 7.2. For analysis of channel activation kinetics, cells were held at −70 mV and stepped to −20 mV before the application of glycine (100 μM) plus NMDA (90 μM for GluN1/GluN2A and 40 μM for GluN1/GluN2B). […] Quality control thresholds were set according to the seal resistance (minimum […]), and failed experiments were excluded from the analysis. For analysis of steady state agonist IC50 values, voltage steps to +40 mV were performed in the presence and absence of agonists before and after compound application in the same cell. IC50 data were generated from agonist responses as described before.[20]
(§2) Figure S1. Analysis of IC50 values of FP802 for NMDARs in HEK293 cells. […] The effects of FP802 on NMDARs were evaluated at +40 […]

[2] = target: T2, human GluN1/GluN2A NMDARs (Homo sapiens, UniProt Q05586+Q12879); test: Automated patch clamp, NMDARs in HEK293 cells; type: cell-based; conditions: +40 mV; glycine 100 μM plus NMDA 90 μM; stable HEK293
T2 construct: host or cells: HEK293
T2 sequence (Q12879 23-1464, other chains not shown): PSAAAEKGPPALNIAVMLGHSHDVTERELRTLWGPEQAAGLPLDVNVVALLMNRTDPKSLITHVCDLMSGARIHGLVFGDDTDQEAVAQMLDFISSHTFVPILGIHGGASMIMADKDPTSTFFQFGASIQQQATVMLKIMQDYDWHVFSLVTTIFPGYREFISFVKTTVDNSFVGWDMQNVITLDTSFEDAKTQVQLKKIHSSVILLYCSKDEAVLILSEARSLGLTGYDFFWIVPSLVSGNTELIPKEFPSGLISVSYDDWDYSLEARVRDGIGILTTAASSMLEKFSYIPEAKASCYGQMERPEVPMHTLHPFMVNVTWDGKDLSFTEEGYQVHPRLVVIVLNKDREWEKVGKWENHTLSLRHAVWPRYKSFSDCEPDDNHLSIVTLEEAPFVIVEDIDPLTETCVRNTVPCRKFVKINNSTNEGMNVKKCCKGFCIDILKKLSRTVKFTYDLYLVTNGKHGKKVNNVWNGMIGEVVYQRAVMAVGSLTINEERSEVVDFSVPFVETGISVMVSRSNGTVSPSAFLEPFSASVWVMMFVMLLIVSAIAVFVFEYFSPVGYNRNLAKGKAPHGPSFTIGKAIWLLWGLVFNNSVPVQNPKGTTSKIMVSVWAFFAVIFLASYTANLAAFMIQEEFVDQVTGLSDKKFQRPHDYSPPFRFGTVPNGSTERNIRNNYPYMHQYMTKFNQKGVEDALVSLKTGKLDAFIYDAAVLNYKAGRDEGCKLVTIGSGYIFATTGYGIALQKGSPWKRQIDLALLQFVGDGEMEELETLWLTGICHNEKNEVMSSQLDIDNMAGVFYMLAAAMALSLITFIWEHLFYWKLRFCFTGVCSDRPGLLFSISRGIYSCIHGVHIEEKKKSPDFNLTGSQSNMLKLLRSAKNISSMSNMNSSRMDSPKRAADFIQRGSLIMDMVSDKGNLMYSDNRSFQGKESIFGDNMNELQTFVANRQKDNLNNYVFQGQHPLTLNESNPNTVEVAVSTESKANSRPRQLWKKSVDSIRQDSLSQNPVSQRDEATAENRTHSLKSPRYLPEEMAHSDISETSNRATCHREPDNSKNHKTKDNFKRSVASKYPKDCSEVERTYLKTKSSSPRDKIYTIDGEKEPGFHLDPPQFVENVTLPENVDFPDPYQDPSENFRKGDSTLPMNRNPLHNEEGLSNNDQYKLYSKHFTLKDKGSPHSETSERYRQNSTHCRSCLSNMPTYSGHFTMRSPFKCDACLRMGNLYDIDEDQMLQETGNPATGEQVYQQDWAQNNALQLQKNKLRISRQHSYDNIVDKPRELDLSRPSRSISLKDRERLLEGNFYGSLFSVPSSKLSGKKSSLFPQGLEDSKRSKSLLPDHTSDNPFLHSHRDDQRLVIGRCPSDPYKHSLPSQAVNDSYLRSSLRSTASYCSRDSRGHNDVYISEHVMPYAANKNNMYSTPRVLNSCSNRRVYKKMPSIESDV
Method: as §1, §2

[3] = FP802 concentration in the spinal cord after subcutaneous osmotic pump delivery; type: in vivo
Source text: We next used FP802 in the transgenic SOD1^G93A mouse model of ALS that expresses mutant human SOD1 with a glycine to alanine substitution at position 93 and whose general features resemble ALS in humans.[24]^,[25] SOD1^G93A mice represent a widely accepted animal model used extensively in ALS drug discovery to evaluate the efficacy of compounds now in clinical trials, which include masitinib, pridopidine, fasudil, guanabenz, and AMX0035.[26]^,[27]^,[28]^,[29]^,[30]^,[31]^,[32] We first confirmed using immunoblot analysis the reduction of EAAT2/GLT-1 expression in the spinal cord of SOD1^G93A mice (Figures 1F and 1G). Deregulation of glutamate uptake systems may lead to an increase in toxic eNMDAR signaling, which could be the cause of motor neuron death. To test this hypothesis, we applied FP802 subcutaneously to SOD1^G93A mice using an implanted ALZET osmotic mini pump to achieve a steady release of the drug. […] Following successful deactivation of the NMDAR/TRPM4 death signaling complex by FP802 in vivo, we next assessed potential therapeutic benefits of FP802 in SOD1^G93A mice. To implement an experimental design that resembles a clinical situation, we started treatment of SOD1^G93A mice with FP802 at the time of onset of motor deficits, which was around week 15.[33]^,[34]
A total of 83 heterozygous SOD1^G93A and 22 wild-type littermates were employed in this study. Eight WT and 12 SOD1^G93A mice were used to determine the EAAT2 protein levels in the spinal cord. Three SOD1^G93A mice were treated with FP802 to explore the concentration of FP802 in the spinal cord. Four SOD1^G93A mice were used to test the tolerability of mice to subcutaneously ALZET osmotic pump (type 2004) implantation with FP802 that allowed a continuous and constant supply of compound to the animals for 4 weeks. Eight wild-type mice were used to explore the disruption of the NMDAR/TRPM4 death signaling complex by FP802. In total, 52 SOD1^G93A mice were treated with FP802 or vehicle via ALZET osmotic pump from week 15 for 30 days (four cohorts). […]

[4] = Serum clinical chemistry of treated SOD1G93A mice; type: in vivo, mouse; conditions: 40 mg/kg/day s.c. pump
Method: All hematology and most serum clinical chemistry analyses were carried out by IDEXX Laboratories, Germany. The neurofilament light chain levels in serum were determined by PBL Assay Science (USA) using the Simoa NF-light Advantage Kit (Quanterix Cat #103186).
Vehicle FP802 n Significance 95% Interval
Table S3. Clinical chemistry serum parameters of SOD1G93A mice treated with vehicle or FP802.
FP802 delivered with a subcutaneously implanted ALZET osmotic pump at 40 mg/kg/day for 4 weeks starting at
References were from Charles River Laboratories datasheets for C57BL6 mice. Related to Figure 2.

T1 sequence (Q13224 27-1484, other chains not shown): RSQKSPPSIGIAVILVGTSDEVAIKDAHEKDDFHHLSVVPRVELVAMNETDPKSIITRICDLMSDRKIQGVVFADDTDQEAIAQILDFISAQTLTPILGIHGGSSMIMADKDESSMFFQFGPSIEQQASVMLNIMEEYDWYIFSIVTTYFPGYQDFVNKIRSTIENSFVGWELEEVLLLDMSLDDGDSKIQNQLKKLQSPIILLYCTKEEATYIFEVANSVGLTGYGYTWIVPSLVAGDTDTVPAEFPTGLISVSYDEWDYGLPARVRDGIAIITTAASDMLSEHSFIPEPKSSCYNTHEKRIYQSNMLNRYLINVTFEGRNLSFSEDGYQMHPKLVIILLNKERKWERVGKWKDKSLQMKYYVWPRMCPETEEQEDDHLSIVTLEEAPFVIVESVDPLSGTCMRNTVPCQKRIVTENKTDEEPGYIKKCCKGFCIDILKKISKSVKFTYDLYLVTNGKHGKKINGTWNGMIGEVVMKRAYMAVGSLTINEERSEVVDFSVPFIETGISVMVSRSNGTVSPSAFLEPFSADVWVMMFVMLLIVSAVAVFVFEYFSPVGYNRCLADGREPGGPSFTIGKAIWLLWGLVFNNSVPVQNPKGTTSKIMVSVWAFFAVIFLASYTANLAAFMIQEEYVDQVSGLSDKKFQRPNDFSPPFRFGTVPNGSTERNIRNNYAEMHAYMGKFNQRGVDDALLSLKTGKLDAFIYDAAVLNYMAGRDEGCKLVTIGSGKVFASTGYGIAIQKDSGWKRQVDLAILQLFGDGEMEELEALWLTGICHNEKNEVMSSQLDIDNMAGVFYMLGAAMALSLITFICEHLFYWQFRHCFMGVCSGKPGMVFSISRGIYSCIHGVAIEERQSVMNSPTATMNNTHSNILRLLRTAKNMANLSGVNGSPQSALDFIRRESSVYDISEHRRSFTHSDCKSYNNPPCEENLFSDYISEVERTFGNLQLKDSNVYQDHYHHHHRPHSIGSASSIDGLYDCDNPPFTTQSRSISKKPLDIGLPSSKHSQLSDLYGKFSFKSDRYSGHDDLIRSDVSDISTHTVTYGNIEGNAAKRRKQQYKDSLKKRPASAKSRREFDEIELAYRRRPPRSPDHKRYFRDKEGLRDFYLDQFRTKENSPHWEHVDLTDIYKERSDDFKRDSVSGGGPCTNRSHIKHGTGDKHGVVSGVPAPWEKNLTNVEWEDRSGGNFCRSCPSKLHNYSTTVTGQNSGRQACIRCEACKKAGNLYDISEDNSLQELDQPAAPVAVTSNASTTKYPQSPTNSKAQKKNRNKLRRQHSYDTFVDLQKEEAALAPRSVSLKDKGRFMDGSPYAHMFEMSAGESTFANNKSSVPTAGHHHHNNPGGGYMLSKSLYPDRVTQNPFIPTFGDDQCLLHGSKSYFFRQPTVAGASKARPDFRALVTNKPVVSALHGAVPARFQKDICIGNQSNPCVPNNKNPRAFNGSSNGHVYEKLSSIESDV

CCN(CCN)Cc1cccc(Cl)c1 [FP802]
IC50 [1]: > 250 µM
IC50 [2]: > 250 µM
concentration in the spinal cord ([3]; SOD1G93A mice, 40 mg/kg/day s.c. ALZET osmotic pump, 2 weeks, n = 3): 7.54 ± 4.79 nmol/g
concentration at 2 weeks ([3]; SOD1G93A transgenic, mouse, spinal cord, sc, SOD1G93A mice, 40 mg/kg/day s.c., 2 weeks, read-out: concentration in the spinal cord, corresponding molar concentration): 3 to 12 µM
crossing of the mouse blood-spinal cord barrier ([3]; s.c. ALZET osmotic mini pump): readily crossed
adverse effects on the serum clinical chemistry parameters ([4]; 4 weeks): no adverse effects
ALT ([4]; serum, 4 weeks): 32.60 ± 8.30 U/L
AST ([4]; serum, 4 weeks): 195.20 ± 147.29 U/L
Alkaline phosphatase ([4]; serum, 4 weeks): 69.40 ± 6.84 U/L
Calcium ([4]; serum, 4 weeks): 2.35 ± 0.06 mmol/L
Chloride ([4]; serum, 4 weeks): 111.20 ± 3.03 mmol/L
Cholesterol ([4]; serum, 4 weeks): 2.68 ± 0.60 mmol/L
Creatine kinase ([4]; serum, 4 weeks): 1500 ± 1475 U/L
Creatinine ([4]; serum, 4 weeks): 9.00 ± 2.16 µmol/L
GGT ([4]; serum, 4 weeks): Not detectable
Inorganic phosphate ([4]; serum, 4 weeks): 3.26 ± 0.18 mmol/L
LDH ([4]; serum, 4 weeks): 813.3 ± 474.5 U/L
Lipase ([4]; serum, 4 weeks): 32.80 ± 4.15 U/L
Potassium ([4]; serum, 4 weeks): 9.02 ± 3.83 mmol/L
Sodium ([4]; serum, 4 weeks): 149.6 ± 3.9 mmol/L
Total protein ([4]; serum, 4 weeks): 50.00 ± 0.71 g/L
Triglycerides ([4]; serum, 4 weeks): 0.48 ± 0.13 g/L
Urea (BUN) ([4]; serum, 4 weeks): 7.58 ± 1.32 mmol/L
Albumin ([4]; serum, 4 weeks from 15 weeks of age): 28.00 ± 1.00 g/L

Reference: article PMC10897598, “TwinF interface inhibitor FP802 stops loss of motor neurons and mitigates disease progression in a mouse model of ALS” (Cell Reports Medicine, 2024)
